Experimental data as given in US20080200439A1, “Methods and compositions for modulating BK channel activity and vasodilation” (University of Tennessee Research Foundation, priority 2006, published 2008).

Molecular target: T1, cbv1+β4 channels (Rattus norvegicus, UniProt Q62976)
T1 construct: Full-length cDNA coding for cbv1-subunits was cloned from rat cerebral artery myocytes by PCR; expressed in transfected cells; host or cells: Xenopus laevis oocytes (cRNA co-injection)
Assay: Patch-clamp of cbv1+β4 channels expressed in Xenopus oocytes
Type: cell-based
From the text: cRNA Preparation and Injection into Xenopus Oocytes. Full-length cDNA coding for cbv1-subunits was cloned from rat cerebral artery myocytes by PCR and ligated to the PCR-XL-TOPO cloning vector (Invitrogen Corp., Carlsbad, Calif., United States of America) (Jaggar et al., 2005). cDNA coding for cbv1-subunits was cleaved from the cloning vector by BamHI (Invitrogen Corp., Carlsbad, Calif., United States of America) and XhoI (Promega, Madison, Wis., United States of America) and directly inserted into the pOX vector for expression in Xenopus oocytes. pOX-cbv1 was linearized with NotI (Promega, Madison, Wis., United States of America) and transcribed in vitro using T3 polymerase. […]
Electrophysiology. […] Single-channel and macroscopic currents were recorded from inside-out (I/O) or outside-out (O/O) patches. […] Nominal free Ca^2+ was calculated with MaxChelator Sliders (C. Patton, Stanford University, California, United States of America) and validated experimentally using Ca^2+-selective electrodes (Corning Incorporated Science Products Division, Corning, N.Y., United States of America). […]
Currents were recorded using an EPC8 amplifier (HEKA Electronics, Lambrecht/Pfalz, Germany) at 1 kHz using a low-pass, eight-pole Bessel filter 902LPF (Frequency Devices, Haverhill, Mass., United States of America). […]

T1 sequence (Q62976 1-1148 isoform Q62976-2): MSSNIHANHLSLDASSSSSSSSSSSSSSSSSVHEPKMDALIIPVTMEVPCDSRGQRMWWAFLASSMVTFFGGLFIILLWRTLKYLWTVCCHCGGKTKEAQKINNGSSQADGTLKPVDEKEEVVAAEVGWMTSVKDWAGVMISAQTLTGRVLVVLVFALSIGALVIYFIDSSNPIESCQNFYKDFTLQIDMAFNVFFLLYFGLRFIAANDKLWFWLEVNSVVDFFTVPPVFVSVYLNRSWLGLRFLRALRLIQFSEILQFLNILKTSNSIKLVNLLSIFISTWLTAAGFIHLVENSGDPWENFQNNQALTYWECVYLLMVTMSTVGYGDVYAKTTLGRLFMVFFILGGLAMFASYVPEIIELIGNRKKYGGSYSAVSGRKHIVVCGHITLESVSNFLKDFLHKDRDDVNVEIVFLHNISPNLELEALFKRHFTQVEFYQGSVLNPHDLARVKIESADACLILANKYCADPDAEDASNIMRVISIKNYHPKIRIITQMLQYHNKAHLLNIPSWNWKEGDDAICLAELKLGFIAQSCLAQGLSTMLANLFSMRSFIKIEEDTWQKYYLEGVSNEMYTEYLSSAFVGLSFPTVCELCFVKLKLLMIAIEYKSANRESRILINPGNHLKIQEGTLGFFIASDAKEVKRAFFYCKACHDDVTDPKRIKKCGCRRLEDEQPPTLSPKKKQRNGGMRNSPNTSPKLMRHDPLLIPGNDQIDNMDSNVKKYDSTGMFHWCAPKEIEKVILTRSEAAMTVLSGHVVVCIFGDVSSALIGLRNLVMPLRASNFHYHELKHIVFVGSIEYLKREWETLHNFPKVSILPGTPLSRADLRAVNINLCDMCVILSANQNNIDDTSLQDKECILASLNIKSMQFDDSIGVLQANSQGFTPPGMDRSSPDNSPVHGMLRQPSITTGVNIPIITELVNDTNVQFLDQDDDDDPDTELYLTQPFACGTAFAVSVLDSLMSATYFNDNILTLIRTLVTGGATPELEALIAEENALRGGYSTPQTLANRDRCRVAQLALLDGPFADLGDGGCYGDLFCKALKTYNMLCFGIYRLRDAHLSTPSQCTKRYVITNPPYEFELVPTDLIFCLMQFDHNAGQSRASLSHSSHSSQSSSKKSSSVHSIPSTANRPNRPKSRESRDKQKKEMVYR
T1 sequence (Q86W47 whole entry partner): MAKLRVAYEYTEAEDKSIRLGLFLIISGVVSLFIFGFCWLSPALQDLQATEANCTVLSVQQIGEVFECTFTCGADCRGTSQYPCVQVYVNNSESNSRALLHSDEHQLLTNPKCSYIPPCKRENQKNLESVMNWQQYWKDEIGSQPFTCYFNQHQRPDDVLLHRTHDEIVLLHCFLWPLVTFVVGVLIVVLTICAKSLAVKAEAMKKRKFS

Row | Compound | remaining activity at 150 µM (150 μM, I/O patches, conditions identical to cbv1 and cbv1+β1, read-out: NPo (% of control)) [%] | Block of channel NPo (55 nM, protracted exposure)
1 | C[C@H](CCC(=O)O)[C@H]1CC[C@H]2[C@@H]3CC[C@@H]4C[C@H](O)CC[C@]4(C)[C@H]3CC[C@]12C [LC, 5β-cholanic acid 3α-ol] | 109 ± 11 | 
2 | iberiotoxin (QFTDVDCSVSKECWSVCKDLFGVDRGKCMGKKCRCYQ; UniProt P24663 1-37, looked up) [Ibtx, reference compound] |  | resistance to block
